Among the data in US12617780B2, “Benzothiophene, thienopyridine and thienopyrimidine derivatives for the modulation of sting” (CTXT PTY LTD, priority 2019, dated 2026) are EC50 and Kd values, retold here.

One experiment concerns the target T1, WT human STING isoform (Homo sapiens, UniProt Q86WV6, H232R).
T1 construct: host or cells: THP-1-Dual KI-hSTING-R232
Description: THP-1-Dual KI-hSTING-R232 reporter cell line assay. The class given is cell-based. The settings on record: 24 h incubation, QUANTI-Luc luminescence; normalised to 40 μM ML RR-S2 CDA; read-out: EC50 THP-1 Dual KI-hSTING-R232 cells. The procedure:
(§1) THP-1 STING Lucia ISG cells (InvivoGen #thpl-isg) were cultured in RPMI-1640 containing 2 mM L-glutamine, 25 mM HEPES, 100 μg/mL Normocin (InvivoGen) and 10% heat-inactivated FBS. Cells were seeded at a density of 7×10^5 cells/mL, maintained at 37° C./5% CO2, and passaged every 3-4 days. Selection pressure was maintained by the addition of 100 μg/mL Zeocin every second passage.
(§2) Assay conditions: cells were harvested and resuspended at a concentration of 5×10^5 cells/mL in fresh growth media. Of this cell preparation 20 μL per well was dispensed into 384 well cell culture plates (Greiner, #781098X) and incubated at 37° C./5% CO2 for 2 hours.
(§3) Concentration Response Curves (commonly 11 doses) were prepared by 2.5 fold serial dilution starting from 10 mM compound stock solution in DMSO. Compound dilutions were transferred into the cell culture plates using a pintool (0.1 μL transfer), control wells were matched for DMSO. Positive control wells received ML RR-S2 CDA (Med Chem Express HY12885B) in 5 μL of media to a final concentration of 40 μM. All other wells received additional 5 μL of media only to equalise volume. The plates were incubated for 24 h at 37° C./5% CO2.
(§4) For the detection step, QUANTI-Luc (InvivoGen #rep-qlc1) was prepared according to manufacturer's instruction and 10 μL were added per well to the culture plates. Plates were shaken for ten seconds on an orbital shaker and left in the dark at room temperature for two minutes, before luminescence was read on a Perkin Elmer Envision plate reader.
(§5) Data analysis: Luminescence raw data was normalised % activity relative to the signal of the positive control wells and negative control wells which were not treated with compound. The following formula was used to calculate normalised % activity from raw signals: % activity=(sample−negative)/(positive−negative)
(§6) The THP-1 STING Lucia ISG cell EC50 provides an assessment of activity at the human HAQ isoform of STING. For assessing compound activity against the WT human STING isoform, an equivalent method was conducted where the cells used were THP-1-Dual KI-hSTING-R232 (InvivoGen #thpd-r232).

The next experiment has as its target T2, huSTING (HAQ) (Homo sapiens, UniProt Q86WV6, G230A/H232R/R293Q).
T2 construct: made in house; host or cells: E. coli BL21 DE3
Nature of the experiment: Surface Plasmon Resonance (SPR) STING (HAQ). Type of experiment: binding. Conditions: biotinylated STING on streptavidin chip, 8° C.; 50% occupancy as surrogate KD. From the text: (§7) To determine binding affinities (50% occupancy as a surrogate Ko for the two binding events occurring) from dose-response experiments, binding responses at equilibrium were fit to a Hill equation, where the Hill coefficient was floated (52). For single-cycle kinetic experiments, sensorgrams were fit to a two-step kinetic model in which two analyte molecules bind sequentially (Biacore T200 or S200 Evaluation Software).

Another experiment concerns the target T3, huSTING (WT) (Homo sapiens, UniProt Q86WV6, H232R).
T3 construct: made in house; host or cells: E. coli BL21 DE3
Description: Surface Plasmon Resonance (SPR) STING (WT). Type of experiment: binding. Conditions: biotinylated STING on streptavidin chip, 8° C.; 50% occupancy as surrogate KD.
Description: as §7

In experiment [1] the target is T4, human HAQ isoform of STING (Homo sapiens, UniProt Q86WV6, G230A/H232R/R293Q/R71H).
T4 construct: host or cells: THP-1 STING Lucia ISG cells
T4 sequence (Q86WV6 whole entry R71H/G230A/H232R/R293Q, canonical isoform): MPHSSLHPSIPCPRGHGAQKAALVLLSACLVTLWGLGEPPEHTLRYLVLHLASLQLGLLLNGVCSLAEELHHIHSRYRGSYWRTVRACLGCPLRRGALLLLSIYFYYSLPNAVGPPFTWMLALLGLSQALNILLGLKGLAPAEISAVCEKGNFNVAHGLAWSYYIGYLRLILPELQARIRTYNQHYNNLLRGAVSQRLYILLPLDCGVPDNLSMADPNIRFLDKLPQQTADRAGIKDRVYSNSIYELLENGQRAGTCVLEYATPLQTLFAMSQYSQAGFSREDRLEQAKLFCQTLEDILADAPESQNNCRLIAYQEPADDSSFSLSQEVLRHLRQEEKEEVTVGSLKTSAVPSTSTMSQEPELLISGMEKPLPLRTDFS
Description: THP-1 STING Lucia ISG reporter cell line assay. Type of experiment: cell-based. The settings on record: 24 h incubation, QUANTI-Luc luminescence; normalised to 40 μM ML RR-S2 CDA; read-out: EC50 THP-1 STING Lucia ISG cells. On the procedure:
as §1, §2, §3, §4, §5, §6

T1 sequence (Q86WV6 whole entry H232R, canonical isoform): as the sequence (Q86WV6 whole entry R71H/G230A/H232R/R293Q, canonical isoform) above, with H71R, A230G, Q293R counted along it
T3 sequence (Q86WV6 with tags, fused parts or gaps H232R): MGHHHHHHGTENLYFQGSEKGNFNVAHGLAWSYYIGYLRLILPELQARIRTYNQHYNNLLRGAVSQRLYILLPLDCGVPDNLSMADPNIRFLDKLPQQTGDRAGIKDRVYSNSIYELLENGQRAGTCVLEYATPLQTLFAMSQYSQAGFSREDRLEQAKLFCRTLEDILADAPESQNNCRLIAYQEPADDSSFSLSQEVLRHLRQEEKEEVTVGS
T2 sequence (Q86WV6 with tags, fused parts or gaps G230A/H232R/R293Q): as the sequence (Q86WV6 with tags, fused parts or gaps H232R) above, with G100A, R163Q counted along it

A word on the EC50: it is the concentration at which the effect is half-maximal. As usually defined, the Kd is the equilibrium constant for the complex coming apart. For the molecule `NC(=O)c1ccc2[nH]c(-c3c(C(=O)O)sc4c(F)ccc(Br)c34)nc2c1` [Example 8, 4-Bromo-3-(5-carbamoyl-1H-benzo[d]imidazol-2-yl)-7-fluorobenzo[b]thiophene-2-carboxylic acid], the concentration giving a half-maximal response (EC50) was found to be 16.4 µM on WT human STING isoform and 18.3 µM in experiment [1]. The Kd came out at 6.7 µM at huSTING (HAQ) and 91 µM on huSTING (WT).
